System: HIV
Experiment: Assay for inhibition of HIV replication (spread assay; acute HIV infection of T-lymphoid cells)
Type: cell-based
Details: Human immunodeficiency virus 1, tested up to 1 micromolar
Experimental: Assay for Inhibition of HIV Replication
Assays for the inhibition of acute HIV infection of T-lymphoid cells were conducted in accordance with Vacca, J. P. et al., Proc. Natl. Acad. Sci. USA 1994, 91: 4096. […] The compounds of Examples 6, 8, 9, 14, 15, 21-23 and 29-35 were also tested in the spread assay up to 1 micromolar, but specific IC95 values were not obtained; i.e., the IC95 values for these compounds are greater than 1 micromolar.

| SMILES | IC95 [µM] |
| --- | --- |
| O=C(NCc1ccc(F)cc1)c1nc2ccccn2c(=O)c1O [Example 1, N-(4-Fluorobenzyl)-3-hydroxy-4-oxo-4H-pyrido[1,2-a]pyrimidine-2-carboxamide] | < 1 |
| CN(C(=O)CS(C)(=O)=O)c1cccn2c(=O)c(O)c(C(=O)NCc3ccc(F)cc3)nc12 [Example 2, N-(4-fluorobenzyl)-3-hydroxy-9-{methyl[(methylsulfonyl)acetyl]amino}-4-oxo-4H-pyrido[1,2-a]pyrimidine-2-carboxamide] | < 1 |
| CCN(CC)C(=O)C(=O)N(CC)c1cccn2c(=O)c(O)c(C(=O)NCc3ccc(F)cc3)nc12 [Example 3, N-(4-fluorobenzyl)-3-hydroxy-9-[(N,N,N′-triethyl)-ethanediamide]-4-oxo-4H-pyrido[1,2-a]pyrimidine-2-carboxamide] | < 1 |
| O=C(NCc1ccc(F)cc1)c1nc2c(OCc3ccccc3)cccn2c(=O)c1O [Example 4, N-(4-fluorobenzyl)-3-hydroxy-9-(benzyloxy)-4-oxo-4H-pyrido[1,2-a]pyrimidine-2-carboxamide] | < 1 |
| O=C(NCc1ccc(F)cc1)c1nc2ccc(-c3ccccc3N3CCOCC3)cn2c(=O)c1O [Example 5] | < 1 |
| CC(=O)N(C)c1cccn2c(=O)c(O)c(C(=O)NCc3ccc(F)cc3)nc12 [Example 6, 9-[acetyl(methyl)amino]-N-(4-fluorobenzyl)-3-hydroxy-4-oxo-4H-pyrido[1,2-a]pyrimidine-2-carboxamide] | > 1 |
| CN(C(=O)c1ccccc1)c1cccn2c(=O)c(O)c(C(=O)NCc3ccc(F)cc3)nc12 [Example 7, 9-[benzoyl(methyl)amino]-N-(4-fluorobenzyl)-3-hydroxy-4-oxo-4H-pyrido[1,2-a]pyrimidine-2-carboxamide] | < 1 |
| CNc1cccn2c(=O)c(O)c(C(=O)NCc3ccc(F)cc3)nc12 [Example 8, 9-[methylamino]-N-(4-fluorobenzyl)-3-hydroxy-4-oxo-4H-pyrido[1,2-a]pyrimidine-2-carboxamide] | > 1 |
| CN(C)c1cccn2c(=O)c(O)c(C(=O)NCc3ccc(F)cc3)nc12 [Example 9, 9-[dimethylamino]-N-(4-fluorobenzyl)-3-hydroxy-4-oxo-4H-pyrido[1,2-a]pyrimidine-2-carboxamide] | > 1 |
| CCNc1cccn2c(=O)c(O)c(C(=O)NCc3ccc(F)cc3)nc12 [Example 10, 9-[ethylamino]-N-(4-fluorobenzyl)-3-hydroxy-4-oxo-4H-pyrido[1,2-a]pyrimidine-2-carboxamide] | < 1 |
| CN(C)C(=O)C(=O)N(C)c1cccn2c(=O)c(O)c(C(=O)NCc3ccc(F)cc3)nc12 [Example 11, N-(2-{[(4-fluorobenzyl)amino]carbonyl}-3-hydroxy-4-oxo-4H-pyrido[1,2-a]pyrimidin-9-yl)-N,N′,N′-trimethylethanediamide] | < 1 |
| CCN(C(=O)C(=O)N(C)C)c1cccn2c(=O)c(O)c(C(=O)NCc3ccc(F)cc3)nc12 [Example 12, N-(2-{[(4-fluorobenzyl)amino]carbonyl}-3-hydroxy-4-oxo-4H-pyrido[1,2-a]pyrimidin-9-yl)-N-ethyl-N′,N′-dimethylethanediamide] | < 1 |
| O=C(Nc1cccn2c(=O)c(O)c(C(=O)NCc3ccc(F)cc3)nc12)OCc1ccccc1 [Example 13, benzyl (2-{[(4-fluorobenzyl)amino]carbonyl}-3-hydroxy-4-oxo-4H-pyrido[1,2-a]pyrimidin-9-yl)carbamate] | < 1 |
| O=C(Nc1cccn2c(=O)c(O)c(C(=O)NCc3ccc(F)cc3)nc12)c1ccccc1 [Example 14, 9-[benzoylamino]-N-(4-fluorobenzyl)-3-hydroxy-4-oxo-4H-pyrido[1,2-a]pyrimidine-2-carboxamide] | > 1 |
| CCN(C(=O)c1ccncc1)c1cccn2c(=O)c(O)c(C(=O)NCc3ccc(F)cc3)nc12 [Example 15, 9-[ethyl(isonicotinoyl)amino]-N-(4-fluorobenzyl)-3-hydroxy-4-oxo-4H-pyrido[1,2-a]pyrimidine-2-carboxamide] | > 1 |

Reference: US7939537B2, “HIV integrase inhibitors” (Istituto Di Ricerche Di Biologia Molecolare P. Angeletti …, priority 2006, dated 2011)
